The values that follow come from patent US9815846B2 (Merck Sharp & Dohme Corp., priority 2014, dated 2017).

For orientation: IC50 means the concentration needed to halve the response being measured. Low readings indicate greater potency, high ones weaker potency.

In this test the target is human TrkA receptor (Homo sapiens (Human), UniProt P04629). In words: DiscoverX PathHunter TrkA functional assay (NGF-stimulated U2OS cells). The class given is cell-based. To be noted: U2OS cells expressing human TrkA-PK, Shc1-EA and p75NTR; compound 1 h, then NGF at ~80% of maximal response for 3 h; luminescence.
Sequence of human TrkA receptor (P04629 33-796): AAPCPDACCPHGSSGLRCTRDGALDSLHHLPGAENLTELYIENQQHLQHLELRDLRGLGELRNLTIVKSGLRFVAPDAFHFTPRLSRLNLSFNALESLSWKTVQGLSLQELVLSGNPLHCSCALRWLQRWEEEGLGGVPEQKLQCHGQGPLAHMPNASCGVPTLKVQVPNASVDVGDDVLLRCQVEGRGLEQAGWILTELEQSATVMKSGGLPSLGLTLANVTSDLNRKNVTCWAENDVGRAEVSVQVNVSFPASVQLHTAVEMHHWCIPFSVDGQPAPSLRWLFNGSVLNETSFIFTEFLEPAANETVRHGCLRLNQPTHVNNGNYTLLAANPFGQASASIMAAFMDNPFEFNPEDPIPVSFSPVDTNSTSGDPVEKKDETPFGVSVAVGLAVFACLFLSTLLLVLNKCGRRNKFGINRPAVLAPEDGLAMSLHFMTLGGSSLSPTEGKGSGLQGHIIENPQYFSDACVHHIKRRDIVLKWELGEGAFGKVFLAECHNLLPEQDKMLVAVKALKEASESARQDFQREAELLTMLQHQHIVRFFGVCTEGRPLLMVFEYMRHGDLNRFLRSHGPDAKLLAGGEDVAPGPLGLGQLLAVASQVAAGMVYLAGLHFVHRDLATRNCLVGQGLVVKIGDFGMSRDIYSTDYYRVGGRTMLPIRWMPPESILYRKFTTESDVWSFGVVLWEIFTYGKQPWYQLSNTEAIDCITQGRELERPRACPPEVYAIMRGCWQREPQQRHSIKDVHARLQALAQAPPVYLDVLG
Protocol: TrkA functional activity was measured using a DiscoverX PathHunter assay. In this assay, U2OS cells express the human TrkA receptor as a fusion with the weakly complementing fragment of B-galactosidase, which DiscoverX calls “Prolink (PK)”; additionally, Shcl is fused with a larger fragment, which is called “Enzyme Acceptor (EA)”. Activation of the TrkA receptor, upon NGF addition, results in the kinase domain being phosphorylated, resulting in subsequent recruitment of Shcl-EA protein. That recruitment results in an active B-galactosidase enzyme that is detected by addition of a chemiluminescent substrate. The human p75^NTR protein was also expressed as a co-receptor for NGF.
All reagents were purchased from DiscoverX, except for the receptor agonists (NGF, BDNF, NT3) which were purchased from Peprotech. Cells were expanded and frozen into cryovials, and stored in the vapor phase of liquid nitrogen, and thawed immediately before use. Thawed cells were added to a 384-well plate at 7500 cells/well, and allowed to incubate overnight. Compound at various concentrations was added the following morning and allowed to incubate on cells for 1 h. Then, NGF was added at a concentration sufficient to elicit ˜80% of a maximal response and allowed to incubate for 3 h at ambient temperature. DiscoverX PathHunter detection reagent was then added and the plate was further incubated for 1 h in the dark. The plate was then read via luminescence on the Perkin Elmer Envision.
`CN(C)C(=O)Cc1ncc(NC(=O)c2cc(-c3ccn(C)n3)c(C(F)(F)F)cc2F)c(-c2ccccc2)n1` [Example 100, N-(2-(2-(Dimethylamino)-2-oxoethyl)-4-phenylpyrimidin-5-yl)-2-fluoro-5-(1-methyl-1H-pyrazol-3-yl)-4-(trifluoromethyl)benzamide] gave a 50% inhibitory concentration (IC50) of 1.2 nM.
Next, `Cn1ccc(-c2cc(C(=O)Nc3cnc(CC(N)=O)cc3-c3ccccc3)c(F)cc2C(F)(F)F)n1` [Example 101, N-(6-(2-Amino-2-oxoethyl)-4-phenylpyridin-3-yl)-2-fluoro-5-(1-methyl-1H-pyrazol-3-yl)-4-(trifluoromethyl)benzamide]: 1.1 nM; `Cn1ccc(-c2cc(C(=O)Nc3ccc(CC(N)=O)nc3-c3ccccc3)c(F)cc2C(F)(F)F)n1` [Example 102, N-(6-(2-Amino-2-oxoethyl)-2-phenylpyridin-3-yl)-2-fluoro-5-(1-methyl-1H-pyrazol-3-yl)-4-(trifluoromethyl)benzamide]: 0.79 nM.
To `CNC(=O)Cc1ncc(NC(=O)c2ccc(C(F)(F)F)c(-c3ccn(C)n3)c2)c(-c2ccccc2)n1` [Example 103, 3-(1-methyl-1H-pyrazol-3-yl)-N-(2-(2-(methylamino)-2-oxoethyl)-4-phenylpyrimidin-5-yl)-4-(trifluoromethyl)benzamide] belongs 4.1 nM; to `CNC(=O)Cc1ncc(NC(=O)c2cc(-c3ccn(C)n3)c(C(F)(F)F)cc2F)c(-c2ccccc2)n1` [Example 104, 2-fluoro-5-(1-methyl-1H-pyrazol-3-yl)-N-(2-(2-(methylamino)-2-oxoethyl)-4-phenylpyrimidin-5-yl)-4-(trifluoromethyl)benzamide], 0.76 nM; to `CCNC(=O)Cc1ncc(NC(=O)c2cc(-c3ccn(C)n3)c(C(F)(F)F)cc2F)c(-c2ccccc2)n1` [Example 105, N-(2-(2-(ethylamino)-2-oxoethyl)-4-phenylpyrimidin-5-yl)-2-fluoro-5-(1-methyl-1H-pyrazol-3-yl)-4-(trifluoromethyl)benzamide], 0.53 nM.
Next, `Cn1ccc(-c2cc(C(=O)Nc3cnc(CC(=O)O)nc3-c3ccccc3)c(F)cc2C(F)(F)F)n1` [Example 106, 2-(5-(2-fluoro-5-(1-methyl-1H-pyrazol-3-yl)-4-(trifluoromethyl)benzamido)-4-phenylpyrimidin-2-yl)acetic acid]: 2 nM; `Cn1ccc(-c2cc(C(=O)Nc3cnc(CC(=O)NC[C@@H]4CCCO4)nc3-c3ccccc3)c(F)cc2C(F)(F)F)n1` [Example 107, (S)-2-fluoro-5-(1-methyl-1H-pyrazol-3-yl)-N-(2-(2-oxo-2-(((tetrahydrofuran-2-yl)methyl)amino)ethyl)-4-phenylpyrimidin-5-yl)-4-(trifluoromethyl)benzamide]: 1.2 nM.
Regarding `Cn1ccc(-c2cc(C(=O)Nc3cnc(CC(=O)NCCO)nc3-c3ccccc3)c(F)cc2C(F)(F)F)n1` [Example 108, 2-fluoro-N-(2-(2-((2-hydroxyethyl)amino)-2-oxoethyl)-4-phenylpyrimidin-5-yl)-5-(1-methyl-1H-pyrazol-3-yl)-4-(trifluoromethyl)benzamide], it took 1.5 nM to reach half-maximal inhibition (IC50).
To `Cn1ccc(-c2cc(C(=O)Nc3cnc(CC(=O)N[C@H]4C[C@@H](O)C4)nc3-c3ccccc3)c(F)cc2C(F)(F)F)n1` [Example 109, 2-fluoro-N-(2-(2-(((1s,3s)-3-hydroxycyclobutyl)amino)-2-oxoethyl)-4-phenylpyrimidin-5-yl)-5-(1-methyl-1H-pyrazol-3-yl)-4-(trifluoromethyl)benzamide] belongs 2.6 nM.
To `Cn1ccc(-c2cc(C(=O)Nc3cnc(CC(=O)N[C@H]4CCOC4)nc3-c3ccccc3)c(F)cc2C(F)(F)F)n1` [Example 110, (S)-2-fluoro-5-(1-methyl-1H-pyrazol-3-yl)-N-(2-(2-oxo-2-((tetrahydrofuran-3-yl)amino)ethyl)-4-phenylpyrimidin-5-yl)-4-(trifluoromethyl)benzamide] belongs 1.2 nM.
Next, `Cn1ccc(-c2cc(C(=O)Nc3cnc(CC(=O)N4CCOCC4)nc3-c3ccccc3)c(F)cc2C(F)(F)F)n1` [Example 111, 2-fluoro-5-(1-methyl-1H-pyrazol-3-yl)-N-(2-(2-morpholino-2-oxoethyl)-4-phenylpyrimidin-5-yl)-4-(trifluoromethyl)benzamide]: 9.1 nM.
Consider `Cn1ccc(-c2cc(C(=O)Nc3cnc(CC(=O)NCC4CCOC4)nc3-c3ccccc3)c(F)cc2C(F)(F)F)n1` (centres unmarked) [Example 112, 2-fluoro-5-(1-methyl-1H-pyrazol-3-yl)-N-(2-(2-oxo-2-(((tetrahydrofuran-3-yl)methyl)amino)ethyl)-4-phenylpyrimidin-5-yl)-4-(trifluoromethyl)benzamide], for which the half-maximal inhibitory concentration (IC50) is 6.5 nM.
Next, `Cn1ccc(-c2cc(C(=O)Nc3cnc(CC(=O)NC4CCC4)nc3-c3ccccc3)c(F)cc2C(F)(F)F)n1` [Example 113, N-(2-(2-(cyclobutylamino)-2-oxoethyl)-4-phenylpyrimidin-5-yl)-2-fluoro-5-(1-methyl-1H-pyrazol-3-yl)-4-(trifluoromethyl)benzamide]: 1.3 nM; `Cn1ccc(-c2cc(C(=O)Nc3cnc(CC(=O)N4CCNCC4)nc3-c3ccccc3)c(F)cc2C(F)(F)F)n1` [Example 114, 2-fluoro-5-(1-methyl-1H-pyrazol-3-yl)-N-(2-(2-oxo-2-(piperazin-1-yl)ethyl)-4-phenylpyrimidin-5-yl)-4-(trifluoromethyl)benzamide]: 3 nM; `CCN(C)C(=O)Cc1ncc(NC(=O)c2cc(-c3ccn(C)n3)c(C(F)(F)F)cc2F)c(-c2ccccc2)n1` [Example 115, N-(2-(2-(ethyl(methyl)amino)-2-oxoethyl)-4-phenylpyrimidin-5-yl)-2-fluoro-5-(1-methyl-1H-pyrazol-3-yl)-4-(trifluoromethyl)benzamide]: 2.6 nM.
To `Cn1ccc(-c2cc(C(=O)Nc3cnc(CC(N)=O)nc3-c3ccccc3)ccc2C(F)(F)F)n1` [Example 116, N-(2-(2-amino-2-oxoethyl)-4-phenylpyrimidin-5-yl)-3-(1-methyl-1H-pyrazol-3-yl)-4-(trifluoromethyl)benzamide] belongs 9.8 nM.
Next, `Cc1ccccc1-c1nc(CC(N)=O)ncc1NC(=O)c1cc(-c2ccn(C)n2)c(C(F)(F)F)cc1F` [Example 117, N-(2-(2-amino-2-oxoethyl)-4-(o-tolyl)pyrimidin-5-yl)-2-fluoro-5-(1-methyl-1H-pyrazol-3-yl)-4-(trifluoromethyl)benzamide]: 4.9 nM; `Cn1ccc(-c2cc(C(=O)Nc3cnc(C(O)C(N)=O)nc3-c3ccccc3)c(F)cc2C(F)(F)F)n1` (centres unmarked) [Example 118, N-(2-(2-amino-1-hydroxy-2-oxoethyl)-4-phenylpyrimidin-5-yl)-2-fluoro-5-(1-methyl-1H-pyrazol-3-yl)-4-(trifluoromethyl)benzamide]: 3.8 nM.
For the compound `Cn1ccc(-c2cc(C(=O)Nc3cnc(C4(C(N)=O)CC4)nc3-c3ccccc3)c(F)cc2C(F)(F)F)n1` [Example 119, N-(2-(1-carbamoylcyclopropyl)-4-phenylpyrimidin-5-yl)-2-fluoro-5-(1-methyl-1H-pyrazol-3-yl)-4-(trifluoromethyl)benzamide], 7.9 nM corresponded to half-maximal inhibition (IC50).
Next, `Cn1ccc(-c2cc(C(=O)Nc3ncc(CC(N)=O)nc3-c3ccccc3)c(F)cc2C(F)(F)F)n1` [Example 120, N-(5-(2-amino-2-oxoethyl)-3-phenylpyrazin-2-yl)-2-fluoro-5-(1-methyl-1H-pyrazol-3-yl)-4-(trifluoromethyl)benzamide]: 8.7 nM.
For `Cn1ccc(-c2cc(C(=O)Nc3cnc(C(C)(C)C(=O)O)nc3-c3ccccc3)c(F)cc2C(F)(F)F)n1` [Example 121, 2-(5-(2-fluoro-5-(1-methyl-1H-pyrazol-3-yl)-4-(trifluoromethyl)benzamido)-4-phenylpyrimidin-2-yl)-2-methylpropanoic acid], the IC50 is 8 nM. The IC50 values of the last two compounds are within 1.5-fold of each other.
To `Cn1ccc(-c2cc(C(=O)Nc3cnc(C(C)(C)C(N)=O)nc3-c3ccccc3)c(F)cc2C(F)(F)F)n1` [Example 122, N-(2-(1-amino-2-methyl-1-oxopropan-2-yl)-4-phenylpyrimidin-5-yl)-2-fluoro-5-(1-methyl-1H-pyrazol-3-yl)-4-(trifluoromethyl)benzamide] belongs 18 nM; to `NC(=O)Cc1ncc(NC(=O)c2cc(-c3ccccn3)c(C(F)(F)F)cc2F)c(-c2ccccc2)n1` [Example 123, N-(2-(2-amino-2-oxoethyl)-4-phenylpyrimidin-5-yl)-2-fluoro-5-(pyridin-2-yl)-4-(trifluoromethyl)benzamide], 8.4 nM; to `NC(=O)Cc1ccc(NC(=O)c2cc(-c3ccccn3)c(C(F)(F)F)cc2F)c(-c2ccccc2)n1` [Example 124, N-(6-(2-amino-2-oxoethyl)-2-phenylpyridin-3-yl)-2-fluoro-5-(pyridin-2-yl)-4-(trifluoromethyl)benzamide], 8.8 nM.
`NC(=O)Cc1ncc(NC(=O)c2cc(-c3ncccn3)c(C(F)(F)F)cc2F)c(-c2ccccc2)n1` [Example 125, N-(2-(2-amino-2-oxoethyl)-4-phenylpyrimidin-5-yl)-2-fluoro-5-(pyrimidin-2-yl)-4-(trifluoromethyl)benzamide] came in with a concentration for half-maximal inhibition (IC50) of 14 nM. This IC50 lies about 1.6-fold higher than the previous one.
Next, `NC(=O)Cc1ncc(NC(=O)c2cc(-c3cc[nH]n3)c(C(F)(F)F)cc2F)c(-c2ccccc2)n1` [Example 126, N-(2-(2-amino-2-oxoethyl)-4-phenylpyrimidin-5-yl)-2-fluoro-5-(1H-pyrazol-3-yl)-4-(trifluoromethyl)benzamide]: 17 nM; `NC(=O)Cc1cc(-c2ccccc2)c(NC(=O)c2cc(-c3ccccn3)c(C(F)(F)F)cc2F)cn1` [Example 127, N-(6-(2-amino-2-oxoethyl)-4-phenylpyridin-3-yl)-2-fluoro-5-(pyridin-2-yl)-4-(trifluoromethyl)benzamide]: 6 nM.
`Cn1ccc(-c2cc(C(=O)Nc3cnc(CCC(N)=O)nc3-c3ccccc3)c(F)cc2C(F)(F)F)n1` [Example 128, N-(2-(3-Amino-3-oxopropyl)-4-phenylpyrimidin-5-yl)-2-fluoro-5-(1-methyl-1H-pyrazol-3-yl)-4-(trifluoromethyl)benzamide] returned a 50% inhibitory concentration (IC50) of 0.54 nM.
